Results as given in patent US20240262917A1, “ANTIBODIES AGAINST ALK AND METHODS OF USE THEREOF” (Dana-Farber Cancer Institute, Inc., priority 2021, published 2024).

Key:
[1] = system: ALK ECD cleavage; test: WB analysis of ALK ECD cleavage in cells treated with MMP inhibitors; type: cell-based; conditions: for ALK ECD cleavage / shed fragment: 2 μM×12 hr.; for levels of the shed ALK ECD fragment in media from treated cells: indicated doses
Source text: (§1) (A) WB analysis of ALK expression in lysates and CM of NGP cells treated with the broad-spectrum protease inhibitor GM6001 and the MMP-9/13 inhibitor CAS 204140-01-2, at the indicated doses, for 12 hr. Untreated (U) or DMSO-treated cells were used as controls. The 8G7 N-terminal anti-ALK antibody was used to detect the shed fragment in CM and a C-terminal anti-ALK antibody used for the cell lysates in this and subsequent panels. β-actin is used as a loading control throughout this figure. (B) WB analysis of ALK expression in NGP cells treated with the MMP-9 (CTK8G1150) and MMP-3/12/13 (MMP408) inhibitors (2 μM×12 hr.). (C) WB analysis of ALK expression in the indicated NB cell lines treated with or without CTK8G1150 (2 μM for 12 hr.). (D) WB analysis of MMP-9 and ALK expression in NGP and BE (2)-C NB cells expressing either a control shRNA (shGFP) or two different shRNAs against MMP-9. (E) Crystal violet-stained images of NGP and IMR-5 NB cells treated with CTK8G1150 ([…]) or DMSO for 16 hr. and then subjected to transwell migration assays for 48 hr. (left). Scale bar, 100 μm. Quantification of migration (right) reported as means±SD; ** p<0.01, n=4. See also, FIG. 14.
(A) Immunoblot analyses of ALK expression in NGP cells after shRNA depletion of ADAM17 or ADAM10. Five separate shRNAs for ADAM17 and two shRNAs for ADAM10 were used. GADPH or β-actin were included as internal loading controls in this and subsequent panels. (B) Schematic illustration of the protease predicted to cleave ALK at the identified ECD cleavage site (Asn654-Leu655) generated using PROSPER and CleavPredict software. FIG. 14B discloses SEQ ID NO: 73. (C) WB analysis of ALK expression in the indicated lysates or conditioned media from cells engineered to express WT ALK and treated with or without the MMP-9 inhibitor, CTK8G1150 (2 μM for 12 hr.). Untreated cells or cells treated with DMSO were used as controls. The 8G7 N-terminal anti-ALK antibody was used to detect the shed fragment in conditioned medium (CM) and a C-terminal anti-ALK antibody was used for the cell lysates in this and subsequent panels. (D) WB analysis of ALK expression in NGP cells treated with the indicated concentrations of CTK8G1150 for 12 hr. (E) WB analysis of ALK expression in NGP cells treated with CTK8G1150 (2 μM) for the indicated time periods. (F) WB analysis of ALK following incubation of recombinant MMP-9 to ALK protein purified from 293T cells engineered to express WT or ALK LF655del.
Most receptor tyrosine kinases (RTKs) undergo ECD cleavage by proteases known as sheddases, that include matrix metalloproteinases (MMPs) and A disintegrin and metalloproteinases (ADAMs) (Kreitman et al., 2018). These zinc-dependent, membrane-associated or secreted proteases cleave cell surface transmembrane proteins that play a primary role in the degradation of extracellular matrix proteins, thus affecting multiple biological functions, such as cell signaling, growth factor activation and cytokine release. […] We next determined whether ALK could be cleaved by MMP-9 in vitro (FIG. 14, panel F). […] Finally, to confirm the role of MMP-9 in ALK cleavage, we genetically depleted this protease through shRNA knockdown in two NB cell lines [NGP and BE(2)-C], observing a significant decrease in the 140 kDa product resulting from inhibition of cleavage (FIG. 7, panel D). Depletion of MMP-2, by contrast, led to only a slight decrease in cleavage.
Cell lysates were prepared in NP-40 buffer (Invitrogen) containing complete protease inhibitor (Roche), phosphatase inhibitor (Roche) and phenylmethylsulfonyl fluoride (PMSF). Lysates were incubated on ice for 20 min and centrifuged at 16,000 g for 15 min at 4° C. Protein concentrations of the supernatants were determined with the DC protein assay kit (Bio-Rad). Protein samples were denatured using NuPAGE LDS sample buffer (Invitrogen) and NuPAGE sample reducing agent (Invitrogen). […]

[2] = system: NGP and IMR-5 NB cells; test: Transwell migration assay after MMP-9 inhibitor treatment; type: cell-based, human; conditions: CTK8G1150 (2 µM) 16 hr., transwell migration 48 hr.
Source text: as §1
Cell migration was measured using transwell chambers (Falcon; cell culture inserts with 8 μm pores) and a 24-well plate as the lower chamber. […]

[3] = system: neuroblastoma; conditions: human, in vivo; cited from earlier work
[4] = system: ALK-positive NSCLC; conditions: cited from earlier work

For `COC(=O)Nc1ccc2oc3cc(S(=O)(=O)N[C@@H](C(=O)O)C(C)C)ccc3c2c1` [MMP408], the “ALK ECD cleavage / shed fragment” value ([1]; NGP cells) was “did not affect cleavage”.
In the case of `CCN(CC)Cc1cc(C)c(N(Cc2ccccc2)S(=O)(=O)c2ccc(OC)cc2)c(C(=O)NO)c1` [CTK8G1150], the “inhibition of ECD cleavage in cells engineered to overexpress WT ALK” value ([1]; 293T and NIH3T3 cells, 2 μM for 12 hr.) is reported as “significant inhibition of ECD cleavage”, the “ECD cleavage in endogenous WT ALK-expressing NB cell lines” value ([1]; NGP NB cells and four additional NB cell lines, 2 μM for 12 hr.) is reported as “inhibited ECD cleavage” and the “period over which ALK ECD cleavage disruption was maintained” value ([1]; NGP cells, 2 μM) is reported as greater than 52 h. For the same molecule, the “ALK ECD cleavage / shed fragment” value ([1]; NGP cells) was “produced a marked decrease in the shed fragment”, the “dose dependence of ALK ECD cleavage disruption” value ([1]; NGP cells, indicated concentrations, 12 hr.) was “disrupted in a dose-dependent manner” and the “migration of NB cells that endogenously expressed WT ALK” value [2] was “significantly suppressed the migration”.
With `COc1ccc(S(=O)(=O)N2CCN(C(=O)c3ccc(-c4ccccc4)cc3)CC2C(=O)NO)cc1` (centres unmarked) [CAS 204140-01-2] the “levels of the shed ALK ECD fragment in media from treated cells” value ([1]; NGP cells, 12 hr.) was “caused a decrease in the levels of the shed ALK ECD fragment”.
In the case of `C[C@@H](Oc1cc(-c2cnn(C3CCNCC3)c2)cnc1N)c1c(Cl)ccc(F)c1Cl` [crizotinib], the “durability of responses in neuroblastoma patients” value [3] is listed as “has not shown durable responses”.
For `CNC(=O)[C@H](Cc1c[nH]c2ccccc12)NC(=O)[C@@H](CC(=O)NO)CC(C)C` [GM6001], the “levels of the shed ALK ECD fragment in media from treated cells” value ([1]; NGP cells, 12 hr.) was “caused a decrease in the levels of the shed ALK ECD fragment”.
In the case of `Cc1cc(Nc2ncc(Cl)c(Nc3ccccc3S(=O)(=O)C(C)C)n2)c(OC(C)C)cc1C1CCNCC1` [ceritinib], the “median duration of response” value [4] is given as 16.6 months.
